Legend:
SGLT2 = SGLT2 (Homo sapiens (Human), UniProt P31639); test: In vitro SGLT2 inhibitory activity: 1-NBDG uptake by CHO-SGLT2 cells; format: cell-based
Experimental: The effect of the compounds on SGLT2-mediated glucose uptake was investigated by establishing an SGLT2 overexpression cell model and using the fluorescent glucose (2-deoxy-1-[(7-nitro-2,1,3-benzoxadiazol-4-yl)amino]-D-glucose, 1-NBDG) tracer method to screen out candidate compounds with SGLT2 inhibitory activity.
The humanized SGLT2 overexpression cells (CHO-SGLT2) constructed from Chinese hamster ovary (CHO) cells were cultured in 1640 medium (Gibco) containing 10% fetal bovine serum (Gibco, 10270), subcultured at a ratio of 1:3, and replaced with new culture medium 3 times every week. Fluorescence detection cell culture plates and other culture flasks were purchased from Corning Company. […] Appropriate amounts of all compounds were weighed, prepared into 100 mM stock solutions with DMSO, and stored at 4° C. in the dark.
Before the 1-NBDG uptake test, CHO-SGLT2 cells were digested and seeded in a 96-well cell culture plate with a cell number of 40,000/well. After the cells were cultured for 48 h, the medium was discarded, and 100 μl of choline buffer was added to each well. After the cells were starved at 37° C. for 30 min, the choline buffer was discarded and 100 μl of the newly prepared Na^+ sodium buffer containing […] 1-NBDG and the test compounds (Compound) was added. The solvent DMSO was used as the negative control (Control) for the test compounds.
The Na^+ sodium buffer without 1-NBDG was used as the blank control (Blank). After 1 h of culture, the incubation solution was discarded. The cells were washed with choline buffer solution 3 times, and then 50 μl of neutral lysate was added to each well to lyse the cells on ice for 10 min. The fluorescence value of each well was detected using a multi-functional microplate reader at […].
At least 3 experimental replicates were set for each compound at indicated concentrations, and the data were expressed as mean±SEM. Uptake amount of 1-NBDG by cells=fluorescence value1-NBDG-fluorescence valueBlank. Inhibition rate on uptake amount of SGLT2 glucose (%)=(uptake amountcontrol−uptake amountcompound)/uptake amountcontrol×100%. Concentration-inhibition rate curves were plotted using Graphpad Prism software, and IC50 values were calculated accordingly.

Alloxan diabetic mice = test: Efficacy in Alloxan diabetes model mice; format: in vivo; settings: for HbA1c: 32nd day; for Concentration of blood glucose 2 h: 2 h after administration; for Concentration of blood glucose 4 h: 4 h after administration; for Concentration of blood glucose 8 h: 8 h after administration; for Concentration of blood glucose 24 h: 24 h after administration; for Concentration of blood glucose 0 h: before administration; for Concentration of blood glucose (random): random blood glucose on the 28th day
Experimental: Test Example 3 Research on efficacy of the compounds of the present invention in in vivo anti-Alloxan diabetes model mice
Alloxan diabetes mice were used. Normal ICR mice (male, 22-24 g) were randomly divided into groups including normal group, model group (con), positive control group and test compound groups with four different doses (n=11), and the mice without injection of Alloxan were in a normal control group (n=10).
Mice were administered with drugs by gavage.
Single administration: Mice were fasted for 3 h, and then the fasting blood (0 min) was collected. Then the mice in each group were administered with drugs by gavage. After 1 h, they were administered with a glucose ([…]) solution. Blood was collected at 30 min, 60 min, 120 min, and 180 min after the glucose administration. The blood glucose level was measured using glucose oxidase-peroxidase method, and the area under the blood glucose curve was calculated.
On the 6th day of continuous administration, under the condition of no fasting, blood samples were collected from mice before administration (0 h), 1 h, 2 h, 4 h, 8 h and 24 h after administration to measure blood glucose.
On the 9th day of continuous administration, the mice were fasted for 1 h and then administered with drugs by gavage. An oral glucose tolerance test (OGTT) was performed 1 h after administration.
On the 16th day of continuous administration, under the condition of no fasting, urine samples were collected from mice 1 h after administration to measure the concentration of urine glucose.
On the 22nd day of continuous administration, the mice were fasted for 1 h and then administered with drugs by gavage, and blood samples were collected to measure the fasting blood glucose 1 h after administration.
On the 28th day of continuous administration, under the condition of no fasting, blood samples were collected from mice 1 h after administration to measure the random blood glucose.
On the 32nd day of continuous administration, under the condition of no fasting, blood samples were collected from mice to measure glycosylated hemoglobin (HbA1c).
The data were expressed as mean±SEM (n=10-11). The comparison between multiple groups was performed by one-way analysis of variance, and the comparison between two groups was performed by Dunnett's t test. Statistical graphing was performed using Graphpad Prism software.

[1] = 0.25 mg/kg, OGTT on the 9th day
[2] = 0.25 mg/kg, non-fasting, 6th day
[3] = 0.5 mg/kg, non-fasting, 6th day
[4] = 1.0 mg/kg, non-fasting, 6th day
[5] = 2.0 mg/kg, non-fasting, 6th day

Sequence of SGLT2 (P31639 whole entry): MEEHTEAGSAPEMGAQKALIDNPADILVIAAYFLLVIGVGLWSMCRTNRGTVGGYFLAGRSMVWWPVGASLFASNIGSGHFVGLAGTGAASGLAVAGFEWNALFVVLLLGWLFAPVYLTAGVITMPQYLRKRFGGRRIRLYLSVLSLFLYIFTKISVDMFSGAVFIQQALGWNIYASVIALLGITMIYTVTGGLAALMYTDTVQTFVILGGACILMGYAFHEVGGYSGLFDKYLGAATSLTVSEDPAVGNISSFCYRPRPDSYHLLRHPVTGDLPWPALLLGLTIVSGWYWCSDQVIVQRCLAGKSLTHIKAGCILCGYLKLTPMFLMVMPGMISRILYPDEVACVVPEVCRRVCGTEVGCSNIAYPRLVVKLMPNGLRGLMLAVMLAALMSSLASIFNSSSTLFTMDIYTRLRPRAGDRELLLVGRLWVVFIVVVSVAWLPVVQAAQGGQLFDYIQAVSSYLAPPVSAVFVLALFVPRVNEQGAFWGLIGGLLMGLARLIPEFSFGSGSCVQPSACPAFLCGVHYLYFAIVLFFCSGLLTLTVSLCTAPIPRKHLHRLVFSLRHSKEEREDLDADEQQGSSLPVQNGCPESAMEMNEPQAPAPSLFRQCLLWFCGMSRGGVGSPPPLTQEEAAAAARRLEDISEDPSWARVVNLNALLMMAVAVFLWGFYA

CS[C@H]1O[C@@H](c2ccc(C)c(Cc3ccc4c(c3)OCCO4)c2)[C@H](O)[C@@H](O)[C@@H]1O (stereo in doubt) [Compound 2, 2-[3-(2,3-dihydro-1,4-benzodioxin-6-ylmethyl)-4-methylphenyl]-6-(methylthio)oxane-3,4,5-triol]
IC50 (SGLT2; CHO-SGLT2 cells, 1-NBDG uptake, read-out: IC50 inhibiting SGLT2): 0.105 nM | inhibition at 1 µM (SGLT2; compound concentration 1 × 10^−6 mol/L, read-out: Inhibition rate of compounds on SGLT2 (%)): 107 ± 1.1% | inhibition at 0.0001 µM (SGLT2; compound concentration 1 × 10^−10 mol/L, read-out: Inhibition rate of compounds on SGLT2 (%)): 40.6 ± 1% | inhibition at 10 pM (SGLT2; compound concentration 1 × 10^−11 mol/L, read-out: Inhibition rate of compounds on SGLT2 (%)): 0% | inhibition at 1 pM (SGLT2; compound concentration 1 × 10^−12 mol/L, read-out: Inhibition rate of compounds on SGLT2 (%)): 0.3 ± 6.4% | inhibition at 0.5 µM (SGLT2; compound concentration 5 × 10^−7 mol/L, read-out: Inhibition rate of compounds on SGLT2 (%)): 81.6 ± 2.5% | inhibition at 0.005 µM (SGLT2; compound concentration 5 × 10^−9 mol/L, read-out: Inhibition rate of compounds on SGLT2 (%)): 80.7 ± 3% | inhibition at 0.0005 µM (SGLT2; compound concentration 5 × 10^−10 mol/L, read-out: Inhibition rate of compounds on SGLT2 (%)): 61.9 ± 3.6% | inhibition at 50 pM (SGLT2; compound concentration 5 × 10^−11 mol/L, read-out: Inhibition rate of compounds on SGLT2 (%)): 39.2 ± 2.1% | Concentration of fasting blood glucose, the 9th day (Alloxan diabetic mice; 0.25 mg/kg): 307.7 ± 23.1 mg/dL | Concentration of fasting blood glucose, the 22nd day (Alloxan diabetic mice; 0.25 mg/kg): 305.6 ± 16.5 mg/dL | HbA1c (Alloxan diabetic mice; 0.25 mg/kg): 7.2 ± 0.4% | AUC of blood glucose (Alloxan diabetic mice; [1]): 541.5 ± 22.8 mg·h/dL | Concentration of blood glucose 0 min (Alloxan diabetic mice; [1]): 307.7 ± 23.1 mg/dL | Concentration of blood glucose 30 min (Alloxan diabetic mice; [1]): 303.0 ± 8.6 mg/dL | Concentration of blood glucose 60 min (Alloxan diabetic mice; [1]): 268.5 ± 13.5 mg/dL | Concentration of blood glucose 120 min (Alloxan diabetic mice; [1]): 223.4 ± 11.6 mg/dL | AUC of blood glucose (Alloxan diabetic mice; 0.25 mg/kg, non-fasting, 6th day, 0-24 h): 12051 ± 437.8 mg·h/dL | Concentration of blood glucose 1 h (Alloxan diabetic mice; 0.25 mg/kg, non-fasting, 6th day, 1 h after administration): 458.4 ± 25.2 mg/dL | Concentration of blood glucose 2 h (Alloxan diabetic mice; [2]): 430.7 ± 31.3 mg/dL | Concentration of blood glucose 4 h (Alloxan diabetic mice; [2]): 404.3 ± 33.8 mg/dL | Concentration of blood glucose 8 h (Alloxan diabetic mice; [2]): 478.2 ± 23.3 mg/dL | Concentration of blood glucose 24 h (Alloxan diabetic mice; [2]): 585.3 ± 17.9 mg/dL | Concentration of blood glucose 0 h (Alloxan diabetic mice; [2]): 540.1 ± 20.1 mg/dL | Concentration of blood glucose (random) (Alloxan diabetic mice; 0.25 mg/kg): 491.1 ± 26.5 mg/dL | Concentration of fasting blood glucose, the 9th day (Alloxan diabetic mice; 0.5 mg/kg): 249.7 ± 14.7 mg/dL | Concentration of fasting blood glucose, the 22nd day (Alloxan diabetic mice; 0.5 mg/kg): 236.0 ± 13.7 mg/dL | HbA1c (Alloxan diabetic mice; 0.5 mg/kg): 6.1 ± 0.4 % | AUC of blood glucose (Alloxan diabetic mice; 0.5 mg/kg, OGTT on the 9th day): 468.3 ± 18.1 mg·h/dL | Concentration of blood glucose 0 min (Alloxan diabetic mice; 0.5 mg/kg, OGTT on the 9th day): 249.7 ± 14.7 mg/dL | Concentration of blood glucose 30 min (Alloxan diabetic mice; 0.5 mg/kg, OGTT on the 9th day): 290.3 ± 13.0 mg/dL | Concentration of blood glucose 60 min (Alloxan diabetic mice; 0.5 mg/kg, OGTT on the 9th day): 231.0 ± 10.1 mg/dL | Concentration of blood glucose 120 min (Alloxan diabetic mice; 0.5 mg/kg, OGTT on the 9th day): 175.0 ± 12.0 mg/dL | AUC of blood glucose (Alloxan diabetic mice; 0.5 mg/kg, non-fasting, 6th day, 0-24 h): 12059 ± 372.3 mg·h/dL | Concentration of blood glucose 1 h (Alloxan diabetic mice; 0.5 mg/kg, non-fasting, 6th day, 1 h after administration): 488.6 ± 15.9 mg/dL | Concentration of blood glucose 2 h (Alloxan diabetic mice; [3]): 474.7 ± 18.1 mg/dL | Concentration of blood glucose 4 h (Alloxan diabetic mice; [3]): 386.0 ± 21.8 mg/dL | Concentration of blood glucose 8 h (Alloxan diabetic mice; [3]): 473.9 ± 28.2 mg/dL | Concentration of blood glucose 24 h (Alloxan diabetic mice; [3]): 585.6 ± 15.0 mg/dL | Concentration of blood glucose 0 h (Alloxan diabetic mice; [3]): 551.9 ± 18.2 mg/dL | Concentration of blood glucose (random) (Alloxan diabetic mice; 0.5 mg/kg): 437.9 ± 23.9 mg/dL | Concentration of fasting blood glucose, the 9th day (Alloxan diabetic mice; 1.0 mg/kg): 201.2 ± 11.4 mg/dL | Concentration of fasting blood glucose, the 22nd day (Alloxan diabetic mice; 1.0 mg/kg): 224.4 ± 17.6 mg/dL | HbA1c (Alloxan diabetic mice; 1.0 mg/kg): 5.9 ± 0.6 % | AUC of blood glucose (Alloxan diabetic mice; 1.0 mg/kg, OGTT on the 9th day): 410.6 ± 15.6 mg·h/dL | Concentration of blood glucose 0 min (Alloxan diabetic mice; 1.0 mg/kg, OGTT on the 9th day): 201.2 ± 11.4 mg/dL | Concentration of blood glucose 30 min (Alloxan diabetic mice; 1.0 mg/kg, OGTT on the 9th day): 253.9 ± 7.7 mg/dL | Concentration of blood glucose 60 min (Alloxan diabetic mice; 1.0 mg/kg, OGTT on the 9th day): 205.3 ± 9.8 mg/dL | Concentration of blood glucose 120 min (Alloxan diabetic mice; 1.0 mg/kg, OGTT on the 9th day): 158.6 ± 8.8 mg/dL | AUC of blood glucose (Alloxan diabetic mice; 1.0 mg/kg, non-fasting, 6th day, 0-24 h): 10310 ± 308.4 mg·h/dL | Concentration of blood glucose 1 h (Alloxan diabetic mice; 1.0 mg/kg, non-fasting, 6th day, 1 h after administration): 417.1 ± 14.8 mg/dL | Concentration of blood glucose 2 h (Alloxan diabetic mice; [4]): 409.8 ± 16.7 mg/dL | Concentration of blood glucose 4 h (Alloxan diabetic mice; [4]): 323.8 ± 16.1 mg/dL | Concentration of blood glucose 8 h (Alloxan diabetic mice; [4]): 368.3 ± 19.4 mg/dL | Concentration of blood glucose 24 h (Alloxan diabetic mice; [4]): 550.3 ± 17.0 mg/dL | Concentration of blood glucose 0 h (Alloxan diabetic mice; [4]): 444.1 ± 19.2 mg/dL | Concentration of blood glucose (random) (Alloxan diabetic mice; 1.0 mg/kg): 395.8 ± 24.1 mg/dL | Concentration of fasting blood glucose, the 9th day (Alloxan diabetic mice; 2.0 mg/kg): 184.9 ± 18.3 mg/dL | Concentration of fasting blood glucose, the 22nd day (Alloxan diabetic mice; 2.0 mg/kg): 211.9 ± 17.8 mg/dL | HbA1c (Alloxan diabetic mice; 2.0 mg/kg): 6.0 ± 0.4 % | AUC of blood glucose (Alloxan diabetic mice; 2.0 mg/kg, OGTT on the 9th day): 393.9 ± 25.6 mg·h/dL | Concentration of blood glucose 0 min (Alloxan diabetic mice; 2.0 mg/kg, OGTT on the 9th day): 184.9 ± 18.3 mg/dL | Concentration of blood glucose 30 min (Alloxan diabetic mice; 2.0 mg/kg, OGTT on the 9th day): 246.0 ± 11.7 mg/dL | Concentration of blood glucose 60 min (Alloxan diabetic mice; 2.0 mg/kg, OGTT on the 9th day): 205.1 ± 12.6 mg/dL | Concentration of blood glucose 120 min (Alloxan diabetic mice; 2.0 mg/kg, OGTT on the 9th day): 141.7 ± 14.6 mg/dL | AUC of blood glucose (Alloxan diabetic mice; 2.0 mg/kg, non-fasting, 6th day, 0-24 h): 11326 ± 225.5 mg·h/dL | Concentration of blood glucose 1 h (Alloxan diabetic mice; 2.0 mg/kg, non-fasting, 6th day, 1 h after administration): 414.1 ± 18.3 mg/dL | Concentration of blood glucose 2 h (Alloxan diabetic mice; [5]): 460.2 ± 15.0 mg/dL | Concentration of blood glucose 4 h (Alloxan diabetic mice; [5]): 390.6 ± 28.2 mg/dL | Concentration of blood glucose 8 h (Alloxan diabetic mice; [5]): 434.0 ± 18.8 mg/dL | Concentration of blood glucose 24 h (Alloxan diabetic mice; [5]): 559.3 ± 10.4 mg/dL | Concentration of blood glucose 0 h (Alloxan diabetic mice; [5]): 473.0 ± 16.2 mg/dL | Concentration of blood glucose (random) (Alloxan diabetic mice; 2.0 mg/kg): 391.2 ± 26.0 mg/dL | Duration of hypoglycemic effect (Alloxan diabetic mice; 6th day, dapagliflozin 2.0 mg/kg, Compound 2 0.25-2.0 mg/kg): still had a good hypoglycemic effect after 8-24 h | Concentration of urine glucose (Alloxan diabetic mice; continuous administration for 16 days, 0.25-2.0 mg/kg, non-fasting, 1 h after administration): significantly increase | Effect on body weight, food intake and water intake (Alloxan diabetic mice; continuous administration for 22 days, 0.25-2.0 mg/kg): no obvious effect | Blood glucose level and AUC after glucose administration (Alloxan diabetic mice; single administration, 0.25, 0.5, 1.0 and 2.0 mg/kg): significantly lower
